# Measured values as given in article PMC11356571, “The Comparative Metabolism of a Novel Hepatocellular Carcinoma Therapeutic Agent, 2,3-Diamino-N-(4-(benzo[d]thiazol-2-yl)phenyl)propanamide, in Human and Animal Hepatocytes” (Metabolites, 2024).
# Assays:
# [1] = Metabolic stability in human hepatocytes; type: in vitro ADME; details: cryopreserved hepatocytes
# Method: (§1) Cryopreserved hepatocytes were carefully thawed in a 37 °C water bath for approximately 1 min, and transferred to a tube containing pre-warmed thawing medium. The supernatants were removed and the pellets were resuspended in KHB at a final cell density of 1 × 10^6 cells/mL, based on hemocytometer counting using trypan blue exclusion. A ETN101 solution was prepared by dissolving ETN101 in water at 4 mM and diluted by KHB at the concentration of 4 μM of ETN101. Sixty microliters each of hepatocyte suspensions and 4 μM of ETN101 were added in a 96-well plate and incubated for 0, 5, 15, 30, and 45 min at 37 °C in a CO2 incubator. All incubations were conducted in triplicates. Reactions were terminated by the addition of 120 μL of ice-cold acetonitrile and followed by vortex mixing. After centrifugation at 13,000 rpm for 8 min at 4 °C, 5 μL of internal standard (IS, camptothecin in acetonitrile at 780 ng/mL) was added to 60 μL of supernatant. A 2 μL aliquot was injected into the LC-MS/MS system. The reliability of the analysis was confirmed by incorporating three different levels of quality control samples at the beginning and end of each analytical batch. The disappearance rate (k) of ETN101 was calculated by determined peak area ratio of ETN101 to IS over incubation period. Subsequently, half-life (t1/2), intrinsic clearance (Clint), and intrinsic hepatic clearance (Clint,hep) of ETN101 in human and animal hepatocytes were calculated using the following equation [34]: t1/2(min)=ln2/−k(elimination slope) ClintμL/min/10^6 cells=ln2/t1/2×μL incubation/hepatocytes (10^6 cells) Clint,hepmL/min/kg=Clint/1000×A×10^6 cells/g liver×B g liver/kg body weight […]
# (§2) For the metabolic stability assay, an LC-MS/MS system was employed, consisting of an Agilent 1260 series HPLC system (Agilent Technologies Inc., Santa Clara, CA, USA) coupled to an API 4000 mass spectrometer (AB SCIEX, Concord, Vaughan, ON, Canada) equipped with a turbo electrospray interface. […] ETN101 and IS were detected using multiple reaction monitoring (MRM) mode under positive electrospray ionization (ESI). […]
# [2] = Metabolic stability in mouse hepatocytes; type: in vitro ADME; details: cryopreserved hepatocytes
# Method: as §1, §2
smiles,measurement,setting,value
"NCC(N)C(=O)Nc1ccc(-c2nc3ccccc3s2)cc1 (stereo not drawn) [ETN101, 2,3-diamino-N-(4-(benzo[d]thiazol-2-yl)phenyl)propanamide]",half-life at 2 µM,[1]; 45 min incubation at 37 °C,1.25 h
same,hepatocyte CLint at 2 µM,[1]; 45 min incubation at 37 °C,18.5 µL/min/1e6 cells
same,CLint scaled at 2 µM,[1]; scaled from Clint,66.1 mL/min/kg
same,half-life at 2 µM,[2]; 45 min incubation at 37 °C,2.01 h
same,hepatocyte CLint at 2 µM,[2]; 45 min incubation at 37 °C,11.5 µL/min/1e6 cells
same,CLint scaled at 2 µM,[2]; scaled from Clint,136 mL/min/kg
